Consider 37 compounds from patent publication US20210231538A1, “DISSOCIATION OF BIOLOGICAL SAMPLES” (priority 2018, published 2021).

“Also recorded” adds a separate entry of the source. Structures can show the parent of a compound that is named as a salt. Where two headings read alike, the source gives them in different places.

In experiment [1] the test system is Trimethylglycine:Trifluoroacetamide fixed mouse liver single-cells. The experiment can be described thus: Lysis of fixed cells by solvents and aqueous solutions. Type of experiment: cell-based. The following applies: for Cell lysis effect (4 day treatment): nuclei: whether nuclei are lysed. The source says:
(§1) This is important for example if studying the RNA component of the cytoplasm, nuclei or the entire cell contents as a selection of the source of the RNA can be made based on the solvent used.

For experiment [2], the system named is DES fixed cell cytoplasm and nuclei. Kind of experiment: Solubilisation of cytoplasm versus nuclei of DES fixed cells. In kind it is cell-based. The following applies: DMSO at 25% or more final concentration.
Description: as §1
Such intact nuclei can be sorted, pelleted selected, and their contents analysed either in entire nuclei by using, for example, labeled antibodies specific to nuclear epitopes such as Ki-67 or, by using fluorescent nucleic acid probes for detecting RNA and DNA. Alternatively the purified nuclei can be lysed and their contents including proteins, DNA and RNA released for further analysis such as genomic DNA sequencing, protein-protein interactions, intron splicing, CHIP analysis, chromosome analysis and/or RNA sequencing.

The mark [3] stands for this setting: 500 fixed, dissociated mouse liver cells per well, bromophenol blue stained, 4 day treatment.
The mark [4] stands for this setting: organic solvents in the range of 80-100% final concentration.

Turning to “10 mg/ml BSA (acetylated): BSA (acetylated)”, the “Cell lysis effect (4 day treatment)” value in experiment [1] (setting [3]) is listed as “No lysis”.

Consider `C[C@H](CCC(=O)NCCC[N+](C)(C)CCCS(=O)(=O)[O-])[C@H]1CC[C@H]2[C@@H]3[C@H](O)C[C@@H]4C[C@H](O)CC[C@]4(C)[C@H]3C[C@H](O)[C@]12C` [1% CHAPS, CHAPS], for which the “Cell lysis effect (4 day treatment)” value in experiment [1] (setting [3]) is reported as more than 80% cell lysis.

`CC(O)(C(F)(F)F)C(F)(F)F` [1,1,1,3,3,3-Hexafluoro-2-methyl-2-propanol]: the “lysing of Trimethylglycine:Trifluoroacetamide (1:2 mol:mol) fixed samples” value (“lysing” below) in experiment [1] (setting [4]) is given as “particularly effective at effectuating cell lysis”.

Regarding `OC(c1ccccc1)(C(F)(F)F)C(F)(F)F` [1,1,1,3,3,3-Hexafluoro-2-phenyl-2-propanol], in experiment [1] (setting [4]), the “lysing” value is recorded as “particularly effective at effectuating cell lysis”.

Regarding `[Cl-].[Li+]` [1M LiCl, LiCl], the “Cell lysis effect (4 day treatment)” value in experiment [1] (setting [3]) was “No lysis”.

Take `CCCCCCCCCCCCOS(=O)(=O)[O-].[Na+]` [2% SDS, Sodium dodecyl sulphate]: the “Cell lysis effect (4 day treatment)” value is recorded as more than 15% cell lysis in experiment [1] (500 fixed, dissociated mouse liver cells per well, bromophenol blue stained, 4 day treatment, listed as 0.1% SDS, sulphate) and “Complete Lysis” in experiment [1] (500 fixed, dissociated mouse liver cells per well, bromophenol blue stained, 4 day treatment, sulphate).

As for `N#CS.N=C(N)N` [4M Guanidine thiocyanate, Guanidine thiocyanate], in experiment [1], the “Cell lysis effect (4 day treatment)” value is on record as more than 50% cell lysis.

`N=C(N)N` [5M Guanidine HCl, Guanidine HCl]: the “Cell lysis effect (4 day treatment)” value in experiment [1] (setting [3]) was more than 50% cell lysis.

For `[I-].[K+]` [5M Potassium iodide, Potassium iodide], the “Cell lysis effect (4 day treatment)” value in experiment [1] (setting [3]) is on record as more than 50% cell lysis; in experiment [1] (500 fixed, dissociated mouse liver cells per well, bromophenol blue stained, 4 day treatment, listed as 1M Potassium iodide) it was “No lysis”. Besides, the “lysing” value in experiment [1] (setting [4]) was “efficient at lysing”.

Take `[O-][Cl+3]([O-])([O-])O` [5M Sodium perchlorate, Sodium perchlorate]: the “Cell lysis effect (4 day treatment)” value in experiment [1] (setting [3]) came to 100% cell lysis. Moreover, the “lysing” value in experiment [1] (setting [4]) is on record as “efficient at lysing”.

Take `CCCC[N+](CCCC)(CCCC)CCCC.[Cl-]` [5M Tetrabutyl ammonium chloride, Tetrabutyl ammonium chloride]: the “Cell lysis effect (4 day treatment)” value in experiment [1] was “No lysis”.

For `C[N+](C)(C)C.[Cl-]` [5M Tetramethyl ammonium chloride, Tetramethyl ammonium chloride], in experiment [1], the “Cell lysis effect (4 day treatment)” value is on record as “No lysis”.

For `NC(N)=O` [8M Urea, Urea], the “Cell lysis effect (4 day treatment)” value in experiment [1] (setting [3]) is recorded as more than 95%. Also, the “Cell lysis effect (4 day treatment): nuclei” value in experiment [1] (4 day treatment) is recorded as “not nuclei”.

`CN1CCCC1=O` [50% N-methyl pyrrolidone, N-methyl pyrrolidone]: the “Cell lysis effect (4 day treatment)” value in experiment [1] (setting [3]) was “No lysis”.

Turning to `OC(C(F)(F)F)C(F)(F)F` [100% 1,1,1,3,3,3-Hexafluoro-2-propanol, 1,1,1,3,3,3-Hexafluoro-2-propanol], the “Cell lysis effect (4 day treatment)” value in experiment [1] (setting [3]) is “Complete lysis”; in experiment [1] (500 fixed, dissociated mouse liver cells per well, bromophenol blue stained, 4 day treatment, listed as 10% 1,1,1,3,3,3-Hexafluoro-2-propanol), “No lysis”; in experiment [1] (500 fixed, dissociated mouse liver cells per well, bromophenol blue stained, 4 day treatment, listed as 50% 1,1,1,3,3,3-Hexafluoro-2-propanol) it was more than 40% cell lysis; in experiment [1] (500 fixed, dissociated mouse liver cells per well, bromophenol blue stained, 4 day treatment, listed as 90% 1,1,1,3,3,3-Hexafluoro-2-propanol), “Complete lysis”. Moreover, the “lysing” value in experiment [1] (setting [4]) is “particularly effective at effectuating cell lysis”. Moreover, the “Cell lysis effect (4 day treatment): nuclei” value in experiment [1] (4 day treatment) was “including nuclei”. For the same compound, the “solubilisation of fixed cell cytoplasm and nuclei” value in experiment [2] is “very efficiently solubilises both the cytoplasm and nuclei”.

On to `CCn1ccnc1` [100% 1-Ethylimidazole, 1-Ethylimidazole], for which the “Cell lysis effect (4 day treatment)” value in experiment [1] (setting [3]) was “No lysis”.

For the compound `Cn1ccnc1` [100% 1-Methylimidazole, 1-Methylimidazole], the “Cell lysis effect (4 day treatment)” value in experiment [1] (setting [3]) was “No lysis”.

For the compound `CC(C)=O` [100% Acetone, Acetone], in experiment [1] (setting [3]), the “Cell lysis effect (4 day treatment)” value was “No lysis”.

For the compound `OCCS` [100% Beta-mercaptoethanol, Beta-mercaptoethanol], the “Cell lysis effect (4 day treatment)” value in experiment [1] (setting [3]) is 100% cell lysis; in experiment [1] (500 fixed, dissociated mouse liver cells per well, bromophenol blue stained, 4 day treatment, listed as 10% Beta-mercaptoethanol) it was “No lysis”; in experiment [1] (500 fixed, dissociated mouse liver cells per well, bromophenol blue stained, 4 day treatment, listed as 20% Beta-mercaptoethanol) it was “No lysis”; in experiment [1] (500 fixed, dissociated mouse liver cells per well, bromophenol blue stained, 4 day treatment, listed as 40% Beta-mercaptoethanol) it was “No lysis”; in experiment [1] (500 fixed, dissociated mouse liver cells per well, bromophenol blue stained, 4 day treatment, listed as 60% Beta-mercaptoethanol), more than 50% cell lysis; in experiment [1] (500 fixed, dissociated mouse liver cells per well, bromophenol blue stained, 4 day treatment, listed as 80% Beta-mercaptoethanol) it was more than 80% cell lysis. Besides, the “lysing” value in experiment [1] (setting [4]) is listed as “particularly effective at effectuating cell lysis”.

Regarding `C[S+](C)[O-]` [100% DMSO, Dimethylsulphoxide], the “Cell lysis effect (4 day treatment)” value in experiment [1] (setting [3]) is more than 70% cell lysis. The “lysing” value in experiment [1] (setting [4]) was “particularly effective at effectuating cell lysis”. Also, the “solubilisation of fixed cell cytoplasm and nuclei” value in experiment [2] is “very efficiently solubilises the Trimethylglycine:Trifluoroacetamide fixed cell's cytoplasm but not the nuclei; also recorded: particularly efficient at the solubilization and removal of the cell membrane and cytoplasm but not the nucleus”.

As to `CCO` [100% Ethanol, Ethanol], the “Cell lysis effect (4 day treatment)” value in experiment [1] (setting [3]) was “No lysis”.

`NC=O` [100% Formamide, Formamide]: the “Cell lysis effect (4 day treatment)” value in experiment [1] (setting [3]) was “No lysis”.

As to `O=CN1CCOCC1` [100% Formyl morpholine, Formyl morpholine], in experiment [1] (setting [3]), the “Cell lysis effect (4 day treatment)” value is “No lysis”.

On to `OCC(O)CO` [100% Glycerol, Glycerol], for which the “Cell lysis effect (4 day treatment)” value in experiment [1] (setting [3]) is listed as “No lysis”.

As to `CCN1CCCC1=O` [100% N-ethyl pyrrolidone, N-ethyl pyrrolidone], the “Cell lysis effect (4 day treatment)” value in experiment [1] (setting [3]) was “No lysis”.

Consider `CCN(CC)C(=O)C(F)(F)F` [N,N-Diethyl-2,2,2-Trifluoroacetamide], for which the “Cell lysis effect (4 day treatment)” value in experiment [1] (setting [3]) is on record as “No lysis”.

Take `CN(C)C(=O)C(F)(F)F` [N,N-Methyl-2,2,2-Trifluoroacetamide]: the “Cell lysis effect (4 day treatment)” value in experiment [1] (setting [3]) is given as “No lysis”.

Turning to `NC(=O)C(F)(F)C(F)F` [Saturated Tetrafluoropropionamide, Tetrafluoropropionamide], in experiment [1] (setting [3]), the “Cell lysis effect (4 day treatment)” value is recorded as “No lysis”.

For `NC(N)=S` [Saturated Thiourea, Thiourea], the “Cell lysis effect (4 day treatment)” value in experiment [1] (setting [3]) is 100% cell lysis.

Take `NC(=O)C(F)(F)F` [Saturated Trifluoroacteamide, Trifluoroacteamide]: in experiment [1] (setting [3]), the “Cell lysis effect (4 day treatment)” value is “No lysis”.

On to `Oc1ccccc1` [phenol], for which the “lysing” value in experiment [1] is “particularly effective at effectuating cell lysis”.

Consider IGEPAL-CA630 [50% IGEPAL-CA630], for which the “Cell lysis effect (4 day treatment)” value in experiment [1] (setting [3]) is reported as 100% cell lysis; in experiment [1] (500 fixed, dissociated mouse liver cells per well, bromophenol blue stained, 4 day treatment, listed as 10% IGEPAL-CA630), “No lysis”; in experiment [1] (500 fixed, dissociated mouse liver cells per well, bromophenol blue stained, 4 day treatment, listed as 30% IGEPAL-CA630), “No lysis”.

NP40 [1% NP40]: the “Cell lysis effect (4 day treatment)” value in experiment [1] (setting [3]) is more than 50% cell lysis.

In the case of PEG200 [100% PEG200], the “Cell lysis effect (4 day treatment)” value in experiment [1] (setting [3]) was “No lysis”.

“Tetramethyl ammonium oxide [50% Tetramethyl ammonium oxide]”: the “Cell lysis effect (4 day treatment)” value in experiment [1] (setting [3]) amounted to 100% cell lysis.

Turning to Triton X100 [1% Triton X100], the “Cell lysis effect (4 day treatment)” value in experiment [1] (setting [3]) is more than 60% cell lysis.

Regarding Tween-20 [1% Tween-20], the “Cell lysis effect (4 day treatment)” value in experiment [1] (setting [3]) was more than 60% cell lysis.
